These compounds were tested against T1, His6-HGFR (HGFR cytoplasmic domain) (Homo sapiens, UniProt P08581) (assay: Inhibitory activity against HGFR tyrosine kinase activity (HTRF)). Conditions: biotin-poly(GT), ATP, 30° C. 10 min.
T1 construct: made in house; host or cells: Sf9 insect cells (Spodoptera frugiperda), baculovirus, pFastBac-HT vector
Assay type: biochemical
Method in brief: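 Sf9-expressed, Ni-NTA-purified N-terminal His6-tagged HGFR cytoplasmic domain (from Lys974), 30 ng, phosphorylates 250 ng biotin-poly(GT) in Hepes pH 7.4 with MgCl2, MnCl2 and Na3VO4. Reaction started with 4 μM ATP stock, run 10 min at 30° C, stopped with EDTA. Phosphotyrosine is detected by HTRF.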

T1 sequence (P08581 956-1390 limits assumed): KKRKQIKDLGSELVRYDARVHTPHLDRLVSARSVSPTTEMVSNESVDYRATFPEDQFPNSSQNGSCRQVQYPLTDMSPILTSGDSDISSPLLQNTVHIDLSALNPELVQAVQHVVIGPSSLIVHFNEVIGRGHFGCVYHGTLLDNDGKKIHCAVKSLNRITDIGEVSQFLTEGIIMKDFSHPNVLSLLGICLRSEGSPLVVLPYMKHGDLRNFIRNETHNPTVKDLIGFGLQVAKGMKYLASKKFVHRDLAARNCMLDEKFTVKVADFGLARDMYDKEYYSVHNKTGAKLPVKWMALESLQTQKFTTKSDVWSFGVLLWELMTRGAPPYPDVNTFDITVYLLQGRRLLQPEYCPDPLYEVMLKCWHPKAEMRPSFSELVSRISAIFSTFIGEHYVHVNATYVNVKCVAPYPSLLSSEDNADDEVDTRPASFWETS

SMILES | IC50 [nM]
CN1CCC(N(C)C(=O)Nc2cc(Oc3ccc(NC(=O)C4(C(=O)Nc5ccccc5F)CC4)c(F)c3)ccn2)CC1 [Example 57, N-(2-Fluoro-4-{[2-({[methyl(1-methylpiperidin-4-yl)amino]carbonyl}amino)pyridin-4-yl]oxy}phenyl)-N′-(2-fluorophenyl)cyclopropane-1,1-dicarboxamide] | 180
CN(C)[C@H]1CCN(C(=O)Nc2cc(Oc3ccc(NC(=O)C4(C(=O)Nc5ccccc5)CC4)c(F)c3)ccn2)C1 [Example 58, N-(4-{[2-({[(3S)-3-(Dimethylamino)pyrrolidin-1-yl]carbonyl}amino)pyridin-4-yl]oxy}-2-fluorophenyl)-N′-phenylcyclopropane-1,1-dicarboxamide] | 85
CN(C)[C@@H]1CCN(C(=O)Nc2cc(Oc3ccc(NC(=O)C4(C(=O)Nc5ccccc5)CC4)c(F)c3)ccn2)C1 [Example 59, N-(4-{[2-({[(3R)-3-(Dimethylamino)pyrrolidin-1-yl]carbonyl}amino)pyridin-4-yl]oxy}-2-fluorophenyl)-N′-phenylcyclopropane-1,1-dicarboxamide] | 75
CCN1CCC(N(C)C(=O)Nc2cc(Oc3ccc(NC(=O)C4(C(=O)Nc5ccccc5)CC4)c(F)c3)ccn2)CC1 [Example 60, N-(4-{[2-({[(1-Ethylpiperidin-4-yl)(methyl)amino]carbonyl}amino)pyridin-4-yl]oxy}-2-fluorophenyl)-N′-phenylcyclopropane-1′-dicarboxamide] | 82
O=C(Nc1cc(Oc2ccc(NC(=O)C3(C(=O)Nc4ccc(F)cc4)CC3)c(F)c2)ccn1)N1CCOCC1 [Example 63, N-[2-Fluoro-4-({2-[(morpholin-4-ylcarbonyl)amino]pyridin-4-yl}oxy)phenyl]-N′-(4-fluorophenyl)cyclopropane-1,1-dicarboxamide] | 14
CN1CCN(C(=O)Nc2cc(Oc3ccc(NC(=O)C4(C(=O)Nc5ccc(F)cc5)CC4)c(F)c3)ccn2)CC1 [Example 64, N-{2-Fluoro-4-[(2-{[(1-methylpiperazin-4-yl)carbonyl]amino}pyridin-4-yl)oxy]phenyl}-N′-(4-fluorophenyl)cyclopropane-1,1-dicarboxamide] | 58

The remaining lines, values ahead:

IC50 [nM] | SMILES
15 | O=C(Nc1cc(Oc2ccc(NC(=O)C3(C(=O)Nc4ccc(F)cc4)CC3)c(F)c2)ccn1)N1CCC1 [Example 61, N-[4-({2-[(Azetidin-1-ylcarbonyl)amino]pyridin-4-yl]oxy}-2-fluorophenyl]-N′-(4-fluorophenyl)cyclopropane-1,1-dicarboxamide]
20 | O=C(Nc1cc(Oc2ccc(NC(=O)C3(C(=O)Nc4ccc(F)cc4)CC3)c(F)c2)ccn1)N1CCCC1 [Example 62, N-(4-Fluorophenyl)-N′-[2-fluoro-4-({2-[(pyrrolidin-1-ylcarbonyl)amino]pyridin-4-yl}oxy)phenyl]cyclopropane-1,1-dicarboxamide]
15 | O=C(Nc1cc(Oc2ccc(NC(=O)C3(C(=O)Nc4ccc(F)cc4)CC3)cc2F)ccn1)N1CCC1 [Example 65, N-[4-({2-[(Azetidin-1-ylcarbonyl)amino]pyridin-4-yl}oxy)-3-fluorophenyl]-N′-(4-fluorophenyl)cyclopropane-1,1-dicarboxamide]
20 | O=C(Nc1cc(Oc2ccc(NC(=O)C3(C(=O)Nc4ccc(F)cc4)CC3)cc2F)ccn1)N1CCCC1 [Example 66, N-(4-Fluorophenyl)-N′-[3-fluoro-4-({2-[(pyrrolidin-1-ylcarbonyl)amino]pyridin-4-yl}oxy)phenyl]cyclopropane-1,1′-dicarboxamide]
17 | O=C(Nc1cc(Oc2ccc(NC(=O)C3(C(=O)Nc4ccc(F)cc4)CC3)cc2F)ccn1)N1CCOCC1 [Example 67, N-[3-Fluoro-4-({2-[(morpholin-4-ylcarbonyl)amino]pyridin-4-yl}oxy)phenyl]-N′-(4-fluorophenyl)-cyclopropane-1,1-dicarboxamide]

Reference: US7855290B2, “Pyridine derivatives and pyrimidine derivatives (3)” (Eisai R&D Management Co., Ltd., priority 2005, dated 2010)
